Assay results: patent US11680050B2, “Crystalline forms of ozanimod and ozanimod hydrochloride, and processes for preparation thereof” (RECEPTOS LLC, priority 2016, dated 2023)
In brackets after ≈: the same amount, converted by molar mass.

Experiments:
Type in all cases: physicochemical
[1] = Hygroscopicity assessment by dynamic vapor sorption (DVS); conditions: for Weight gain under 80% RH: DVS, 25° C.
Experimental: Dynamic Vapor Sorption (DVS) is measured via an SMS (Surface Measurement Systems Ltd.) intrinsic DVS. Typical Parameters for DVS test are as follows:
Gas and flow rate: N2, 200 mL/min
RH range: 0% RH to 95% RH […]
Dynamic vapor sorption (DVS) was applied to test hygroscopicity of Form CS1 of ozanimod hydrochloride with about 10 mg of samples.
Description and definition of hygroscopicity (Chinese Pharmacopoeia 2015 edition appendix Drug hygroscopic test guidelines, test at 25° C.+/−1° C., 80% RH). • deliquescent: Sufficient water is absorbed to form a liquid; • very hygroscopic: Increase in mass is equal to or greater than 15 percent; • hygroscopic: Increase in mass is less than 15 percent and equal to or greater than 2 percent; • slightly hygroscopic: Increase in mass is less than 2 percent and equal to or greater than 0.2 percent. • non hygroscopic or almost non hygroscopic: Increase in mass is less than 0.2 percent.

[2] = Stability assessment in constant temperature and humidity chambers (HPLC purity, XRPD crystalline form); conditions: for 1 week purity % / 2 week purity % / 4 week purity %: HPLC; for Change of the crystalline form: XRPD; for Stability, overall conclusion of the storage test: after storage under all conditions tested for the form
Experimental: (§1) Three solid samples of Form CS1 were placed in constant temperature and humidity chambers at 25° C./60% RH, 40° C./75% RH and 60° C./75% RH for 4 weeks. XRPD was used to test the crystalline form at the end of week 4. HPLC was used to measure the chemical purity at the end of week 1, 2, and 4. The XRPD comparison result is shown in FIG. 31 (from top to bottom: XRPD pattern of Form CS1 before and after being stored under 25° C./60% RH, 40° C./75% RH and 60° C./75% RH for 4 weeks), and the results are shown in Table 20.
as §1, with “Four” for “Three”, “CS2” for “CS1”, “weeks and 80° C. for 1 week.” for “weeks.”, “32” for “31”, “weeks and 80° C. for 1 week),” for “weeks),”, “21.” for “20.”
as §1, with “Form CS3” for “Form CS1”, “comparison pattern” for “comparison result”, “FIG. 33” for “FIG. 31”, “Table 22.” for “Table 20.”
as §1, with “Form CS5” for “Form CS1”, “for 2” for “for 4”, “[…].” for “4. HPLC was used to measure the chemical purity at the end of week 1, 2, and 4.”, “comparison pattern” for “comparison result”, “FIG. 34” for “FIG. 31”, “Table 23.” for “Table 20.”
Two samples of Form CS6 were placed in constant temperature and humidity chambers at 25° C./60% RH and 40° C./75% RH for 4 weeks. XRPD was used to test the crystalline form at the end of week 4. HPLC was used to measure the chemical purity at the end of week 1, 2, and 4.The XRPD comparison result is shown in FIG. 35 (from top to bottom: XRPD pattern of Form CS6 before and after being stored under 25° C./60% RH and 40° C./75% RH for 4 weeks), and the results are shown in Table 24.
Four samples of Form CS1 of ozanimod hydrochloride were placed in constant temperature and humidity chambers at 25° C./60% RH, 40° C./75% RH and 60° C./75% RH for 4 weeks and 80° C. for 1 week. XRPD was used to test the crystalline form at the end of week 4. HPLC was used to measure the chemical purity at the end of week 1, 2, and 4. The XRPD comparison pattern is shown in FIG. 36 (from top to bottom: XRPD pattern of ozanimod hydrochloride Form CS1 before and after being stored under 25° C./60% RH, 40° C./75% RH and 60° C./75% RH for 4 weeks and 80° C. for 1 week), and the results are shown in Table 25.

[3] = Particle size distribution test (laser particle size analyzer, wet process); conditions: for MV, average particle size calculated by volume: dispersion medium Isopar G; for D10 / D50 (median diameter) / D90: volume distribution, Isopar G
Experimental: The particle size distribution test in the present disclosure is acquired by the S3500 laser particle size analyzer of Microtrac. Microtrac S3500 is equipped with the SDC (Sample Delivery Controller). The test is carried out by wet process, and the dispersion medium is Isopar G The parameters are as follow:
Certain amount of samples of Form CS1, Form CS2, Form CS3, Form CS5, Form CS6 of ozanimod and Form CS1 of ozanimod hydrochloride were taken for particle size distribution test.

[4] = Solubility assessment of saturated solutions in SGF, FeSSIF and water, measured by HPLC
Experimental: Form CS1 and Form CS1 of ozanimod hydrochloride were suspended into SGF (Simulated gastric fluids) and FeSSIF (Fed state simulated intestinal fluids, pH=5.0) to obtain saturated solutions. After being equilibrated for 1 h, 4 h and 24 h, concentrations of the saturated solutions were measured by HPLC.
Form CS3 and Form CS5 were suspended into SGF (Simulated gastric fluids) and water, and Form CS2 was suspended into FeSSIF (Fed state simulated intestinal fluids) to obtain saturated solutions. After being equilibrated for 1 h, 4 h and 24 h, concentrations of the saturated solutions were measured by HPLC.

[5] = Mechanical stability, manual grinding for 5 minutes in mortar, XRPD; conditions: ground manually for 5 minutes, XRPD before and after
Experimental: Solid samples of Form CS3, Form CS5, Form CS6 of ozanimod and Form CS1 of ozanimod hydrochloride were ground manually for 5 minutes in mortar.

## CC(C)Oc1ccc(-c2nc(-c3cccc4c3CC[C@@H]4NCCO)no2)cc1C#N [Form CS3, ozanimod]
[1]
  Weight gain under 80% RH: 2.25%
[2]; 25° C./60% RH
  1 week purity %: 99.53%
[2]; 25° C./60% RH, 2 weeks
  2 week purity %: 99.30%
[2]; 25° C./60% RH, 4 weeks
  4 week purity %: 99.31%
  Change of the crystalline form: No change
[2]; 40° C./75% RH
  1 week purity %: 99.52%
[2]; 40° C./75% RH, 2 weeks
  2 week purity %: 99.28%
[2]; 40° C./75% RH, 4 weeks
  4 week purity %: 99.17%
  Change of the crystalline form: No change
[2]; 60° C./75% RH
  1 week purity %: 99.36%
[2]; 60° C./75% RH, 2 weeks
  2 week purity %: 98.84%
[2]; 60° C./75% RH, 4 weeks
  4 week purity %: 98.54%
  Change of the crystalline form: No change
[2]
  Stability, overall conclusion of the storage test: good stability
[3]
  MV, average particle size calculated by volume: 66.62 μm
  D10: 20.36 μm
  D50 (median diameter): 51.80 μm
  D90: 130.8 μm
[4]; SGF, 1 h
  Solubility: 0.54 mg/mL (≈ 1340 µM)
[4]; SGF, 4 h
  Solubility: 0.52 mg/mL (≈ 1290 µM)
[4]; SGF, 24 h
  Solubility: 0.54 mg/mL (≈ 1340 µM)
[4]; water, thermodynamic from solid, H2O, 1 h
  solubility at 1 h: 0.17 mg/mL (≈ 420 µM)
[4]; water, thermodynamic from solid, H2O, 24 h
  solubility at 24 h: 0.35 mg/mL (≈ 865 µM)
[5]
  Form change under mechanical stress: No form change

## CC(C)Oc1ccc(-c2nc(-c3cccc4c3CC[C@@H]4NCCO)no2)cc1C#N [Form CS5, ozanimod]
[1]; Chinese Pharmacopoeia 2015, 25° C., 80% RH
  Hygroscopicity class according to the definition of hygroscopicity: slightly hygroscopic (Increase in mass is less than 2 percent and equal to or greater than 0.2 percent)
[1]
  Weight gain under 80% RH: 0.23%
[2]; 25° C./60% RH, 2 weeks
  Change of the crystalline form: No change
[2]; 40° C./75% RH, 2 weeks
  Change of the crystalline form: No change
[2]; 60° C./75% RH, 2 weeks
  Change of the crystalline form: No change
[2]
  Stability, overall conclusion of the storage test: good stability
[3]
  MV, average particle size calculated by volume: 68.84 μm
  D10: 6.55 μm
  D50 (median diameter): 41.10 μm
  D90: 173.3 μm
[4]; H2O, 24 h
  Solubility: 0.27 mg/mL (≈ 668 µM)
[4]; SGF, 4 h
  Solubility: 1.0 mg/mL (≈ 2470 µM)
[4]; SGF, 24 h
  Solubility: 0.77 mg/mL (≈ 1900 µM)
[4]; water, thermodynamic from solid, H2O, 4 h
  solubility at 4 h: 0.26 mg/mL (≈ 643 µM)
[5]
  Form change under mechanical stress: No form change
